Reference: ChEMBL document CHEMBL1909046, “DrugMatrix in vitro pharmacology data”

Columns and labels:
[1] = molecular target: Beta-1 adrenergic receptor (Homo sapiens, UniProt P08588); assay: DRUGMATRIX: Adrenergic beta1 radioligand binding (ligand: [125I] Cyanopindolol); format: cell membranes, CHO-K1, Membrane; settings: cho-k1; Not Active = under 50% inhibition at 10 µM
[2] = molecular target: T1, Calcitonin receptor (Homo sapiens, UniProt P30988); format: cell membranes, Membrane; settings: t47d; further: in other assays of this panel Not Active means under 50% inhibition at 10 µM
T1 sequence (P30988 whole entry): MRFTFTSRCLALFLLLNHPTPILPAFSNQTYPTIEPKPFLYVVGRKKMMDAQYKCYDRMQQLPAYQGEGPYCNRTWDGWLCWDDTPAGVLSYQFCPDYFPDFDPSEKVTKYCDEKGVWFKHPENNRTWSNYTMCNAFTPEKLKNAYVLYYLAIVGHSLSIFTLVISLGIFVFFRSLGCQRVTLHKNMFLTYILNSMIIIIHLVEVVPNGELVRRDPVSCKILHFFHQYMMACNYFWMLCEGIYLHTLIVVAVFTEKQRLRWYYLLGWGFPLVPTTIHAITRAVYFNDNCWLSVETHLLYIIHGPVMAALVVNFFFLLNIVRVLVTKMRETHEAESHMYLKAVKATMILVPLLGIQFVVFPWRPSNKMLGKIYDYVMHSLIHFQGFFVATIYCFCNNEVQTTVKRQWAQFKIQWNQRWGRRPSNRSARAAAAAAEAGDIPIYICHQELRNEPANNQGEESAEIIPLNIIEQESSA

[3] = molecular target: Substance-P receptor (Homo sapiens, UniProt P25103); format: cell membranes, Membrane; settings: cho; further: in other assays of this panel Not Active means under 50% inhibition at 10 µM
Substance-P receptor, sequence (P25103 whole entry): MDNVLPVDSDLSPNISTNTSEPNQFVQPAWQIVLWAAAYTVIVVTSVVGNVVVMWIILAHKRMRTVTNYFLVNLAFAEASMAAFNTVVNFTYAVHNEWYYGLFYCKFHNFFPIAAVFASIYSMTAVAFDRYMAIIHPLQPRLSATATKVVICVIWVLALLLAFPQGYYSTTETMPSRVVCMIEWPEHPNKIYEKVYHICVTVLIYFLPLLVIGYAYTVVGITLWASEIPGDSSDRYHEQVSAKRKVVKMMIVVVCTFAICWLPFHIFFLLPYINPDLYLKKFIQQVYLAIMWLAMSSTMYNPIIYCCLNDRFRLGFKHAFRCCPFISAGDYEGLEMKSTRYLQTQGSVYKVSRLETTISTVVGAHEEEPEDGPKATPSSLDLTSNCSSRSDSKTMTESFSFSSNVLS

[4] = DRUGMATRIX: Tumor Necrosis Factor (TNF), Non-Selective radioligand binding (ligand: [125I] TNF-alpha); format: cell membranes, Membrane; settings: u-937; Not Active = under 50% inhibition at 10 µM
[5] = DRUGMATRIX: GABAA, Chloride Channel, TBOB radioligand binding (ligand: [3H] TBOB); format: cell membranes, Rattus norvegicus, Wistar, Cerebral cortex, Membrane; settings: Not Active = under 50% inhibition at 10 µM
[6] = molecular target: T2, 3-hydroxy-3-methylglutaryl-coenzyme A reductase (Homo sapiens, UniProt P04035); parameters: species or system Escherichia coli;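 further: enzyme inhibition assay of HMG-CoA reductase using radiolabeled [14C]HMG-CoA as substrate; in other assays of this panel Not Active means under 50% inhibition at 10 µM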
T2 sequence (P04035 whole entry): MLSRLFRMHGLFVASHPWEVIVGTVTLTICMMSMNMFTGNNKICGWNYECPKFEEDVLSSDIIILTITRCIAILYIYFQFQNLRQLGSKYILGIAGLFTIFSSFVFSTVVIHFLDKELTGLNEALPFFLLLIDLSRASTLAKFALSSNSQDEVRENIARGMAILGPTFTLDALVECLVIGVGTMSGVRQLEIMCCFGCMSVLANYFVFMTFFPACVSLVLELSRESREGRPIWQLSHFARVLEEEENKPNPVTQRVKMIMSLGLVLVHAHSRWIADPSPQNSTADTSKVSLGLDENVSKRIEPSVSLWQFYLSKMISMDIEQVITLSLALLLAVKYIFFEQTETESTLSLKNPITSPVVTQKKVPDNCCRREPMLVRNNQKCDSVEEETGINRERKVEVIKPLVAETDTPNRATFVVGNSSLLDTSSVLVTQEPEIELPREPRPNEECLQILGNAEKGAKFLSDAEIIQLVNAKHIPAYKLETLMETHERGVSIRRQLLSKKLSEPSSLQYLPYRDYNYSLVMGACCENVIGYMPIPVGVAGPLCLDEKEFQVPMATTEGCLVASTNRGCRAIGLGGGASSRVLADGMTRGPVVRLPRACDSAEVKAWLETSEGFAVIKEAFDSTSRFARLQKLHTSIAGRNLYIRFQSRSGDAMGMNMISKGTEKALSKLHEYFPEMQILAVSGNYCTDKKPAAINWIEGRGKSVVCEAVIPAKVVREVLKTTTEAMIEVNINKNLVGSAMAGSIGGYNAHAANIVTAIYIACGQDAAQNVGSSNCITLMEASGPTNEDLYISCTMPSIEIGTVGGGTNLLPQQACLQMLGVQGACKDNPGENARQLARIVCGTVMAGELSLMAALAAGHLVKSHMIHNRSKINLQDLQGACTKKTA

[7] = DRUGMATRIX: Interleukin IL-1 radioligand binding (ligand: [125I] interleukin 1beta); format: cell membranes, Membrane; settings: nih3t3; Not Active = under 50% inhibition at 10 µM
[8] = molecular target: T3, Neuropeptide Y receptor type 2 (Homo sapiens, UniProt P49146); format: cell membranes, Membrane; settings: kan-ts; further: in other assays of this panel Not Active means under 50% inhibition at 10 µM
T3 sequence (P49146 whole entry): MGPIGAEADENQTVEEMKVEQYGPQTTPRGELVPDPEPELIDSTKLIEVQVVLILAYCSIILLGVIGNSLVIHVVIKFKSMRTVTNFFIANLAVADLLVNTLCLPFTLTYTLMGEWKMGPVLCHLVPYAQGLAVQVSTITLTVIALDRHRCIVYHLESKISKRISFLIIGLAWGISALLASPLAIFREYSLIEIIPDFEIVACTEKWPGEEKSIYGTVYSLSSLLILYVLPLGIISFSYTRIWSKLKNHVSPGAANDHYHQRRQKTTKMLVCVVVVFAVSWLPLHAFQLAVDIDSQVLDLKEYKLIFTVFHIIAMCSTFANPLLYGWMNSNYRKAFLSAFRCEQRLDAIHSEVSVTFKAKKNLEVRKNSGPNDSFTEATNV

[9] = DRUGMATRIX: Phosphodiesterase PDE4 enzyme inhibition (substrate: [3H]cAMP + cAMP); settings: u-937; Not Active = under 50% inhibition at 10 µM
[10] = molecular target: cGMP-specific 3',5'-cyclic phosphodiesterase (Homo sapiens, UniProt O76074); assay: DRUGMATRIX: Phosphodiesterase PDE5 enzyme inhibition (substrate: [3H]cGMP + cGMP); format: tissue-based; settings: platelet; Not Active = under 50% inhibition at 10 µM
[11] = molecular target: Tyrosine-protein kinase Fyn (Homo sapiens, UniProt P06241); assay: biochemical; format: cell-based, Insect cells
Tyrosine-protein kinase Fyn, sequence (P06241 whole entry): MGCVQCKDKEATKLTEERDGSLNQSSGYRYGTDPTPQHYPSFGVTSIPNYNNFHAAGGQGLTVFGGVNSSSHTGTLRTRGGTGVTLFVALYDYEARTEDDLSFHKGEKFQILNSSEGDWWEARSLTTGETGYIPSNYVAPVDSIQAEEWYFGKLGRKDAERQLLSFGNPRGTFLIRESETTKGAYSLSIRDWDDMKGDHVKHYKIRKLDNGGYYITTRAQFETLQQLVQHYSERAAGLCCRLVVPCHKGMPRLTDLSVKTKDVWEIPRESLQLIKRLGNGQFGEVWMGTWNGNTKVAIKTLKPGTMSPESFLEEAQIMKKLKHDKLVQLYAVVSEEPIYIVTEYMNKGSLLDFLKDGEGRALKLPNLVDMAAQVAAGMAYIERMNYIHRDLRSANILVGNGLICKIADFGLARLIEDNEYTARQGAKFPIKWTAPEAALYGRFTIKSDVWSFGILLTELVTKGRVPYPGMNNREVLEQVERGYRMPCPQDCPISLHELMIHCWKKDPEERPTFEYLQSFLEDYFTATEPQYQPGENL

Beta-1 adrenergic receptor, sequence (P08588 whole entry): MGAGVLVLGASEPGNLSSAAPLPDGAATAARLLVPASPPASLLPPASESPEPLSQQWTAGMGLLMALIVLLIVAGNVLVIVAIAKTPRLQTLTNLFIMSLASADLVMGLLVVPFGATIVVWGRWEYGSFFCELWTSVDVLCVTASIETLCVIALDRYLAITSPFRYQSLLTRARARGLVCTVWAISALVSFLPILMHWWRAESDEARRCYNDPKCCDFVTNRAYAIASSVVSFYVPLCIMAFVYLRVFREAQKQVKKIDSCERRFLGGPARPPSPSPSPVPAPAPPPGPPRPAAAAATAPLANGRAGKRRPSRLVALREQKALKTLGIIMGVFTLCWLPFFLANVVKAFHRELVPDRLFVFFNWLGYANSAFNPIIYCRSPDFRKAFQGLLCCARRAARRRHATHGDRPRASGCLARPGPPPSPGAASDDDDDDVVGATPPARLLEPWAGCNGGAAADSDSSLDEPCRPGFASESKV

O=C1CCC(N2C(=O)c3ccccc3C2=O)C(=O)N1 (stereo not given) [THALIDOMIDE]
IC50 [1]: Not Active
IC50 [2]: Not Active
IC50 [3]: Not Active
IC50 [4]: Not Active
Ki [4]: Not Active
IC50 [5]: Not Active
Ki [5]: Not Active
IC50 [6]: Not Active
IC50 [7]: Not Active
Ki [7]: Not Active
IC50 [8]: Not Active
IC50 [9]: Not Active
Ki [9]: Not Active
IC50 [10]: Not Active
IC50 ([11]; insect cells): Not Active

Cc1cccc(Nc2ccncc2S(=O)(=O)NC(=O)NC(C)C)c1 [TORSEMIDE]
IC50 [1]: Not Active
IC50 [2]: Not Active
IC50 [3]: Not Active
IC50 [4]: Not Active
Ki [4]: Not Active
IC50 [5]: Not Active
Ki [5]: Not Active
IC50 [6]: Not Active
IC50 [7]: Not Active
Ki [7]: Not Active
IC50 [8]: Not Active
IC50 [9]: Not Active
Ki [9]: Not Active
IC50 [10]: Not Active
IC50 ([11]; insect cells): Not Active

CC(C)C[C@H](NC(=O)[C@@H](O)[C@H](N)Cc1ccccc1)C(=O)O [UBENIMEX]
IC50 [1]: Not Active
IC50 [2]: Not Active
IC50 [3]: Not Active
IC50 [4]: Not Active
Ki [4]: Not Active
IC50 [5]: Not Active
Ki [5]: Not Active
IC50 [6]: Not Active
IC50 [7]: Not Active
Ki [7]: Not Active
IC50 [8]: Not Active
IC50 [9]: Not Active
Ki [9]: Not Active
IC50 [10]: Not Active
IC50 ([11]; insect cells): Not Active

Cc1onc(-c2ccccc2)c1-c1ccc(S(N)(=O)=O)cc1 [VALDECOXIB]
IC50 [1]: Not Active
IC50 [2]: Not Active
IC50 [3]: Not Active
IC50 [4]: Not Active
Ki [4]: Not Active
IC50 [5]: Not Active
Ki [5]: Not Active
IC50 [6]: Not Active
IC50 [7]: Not Active
Ki [7]: Not Active
IC50 [8]: Not Active
IC50 [9]: Not Active
Ki [9]: Not Active
IC50 [10]: Not Active
IC50 ([11]; insect cells): Not Active

CC[C@]1(O)C[C@@H]2CN(CCc3c([nH]c4ccccc34)[C@@](C(=O)OC)(c3cc4c(cc3OC)N(C)[C@H]3[C@@](O)(C(=O)OC)[C@H](OC(C)=O)[C@]5(CC)C=CCN6CC[C@]43[C@@H]65)C2)C1 [VINBLASTINE]
IC50 [1]: Not Active
IC50 [2]: Not Active
IC50 [3]: Not Active
IC50 [4]: Not Active
Ki [4]: Not Active
IC50 [5]: Not Active
Ki [5]: Not Active
IC50 [6]: Not Active
IC50 [7]: Not Active
Ki [7]: Not Active
IC50 [8]: Not Active
IC50 [9]: Not Active
Ki [9]: Not Active
IC50 [10]: Not Active
IC50 ([11]; insect cells): Not Active

CC(=O)CC(c1ccccc1)c1c(O)c2ccccc2oc1=O (stereo not given) [WARFARIN]
IC50 [1]: Not Active
IC50 [2]: Not Active
IC50 [3]: Not Active
IC50 [4]: Not Active
Ki [4]: Not Active
IC50 [5]: Not Active
Ki [5]: Not Active
IC50 [6]: Not Active
IC50 [7]: Not Active
Ki [7]: Not Active
IC50 [8]: Not Active
IC50 [9]: Not Active
Ki [9]: Not Active
IC50 [10]: Not Active
IC50 ([11]; insect cells): Not Active

C[C@@H](N)[C@H]1CC[C@H](C(=O)Nc2ccncc2)CC1 [Y-27632]
IC50 [1]: Not Active
IC50 [2]: Not Active
IC50 [3]: Not Active
IC50 [4]: Not Active
Ki [4]: Not Active
IC50 [5]: Not Active
Ki [5]: Not Active
IC50 [6]: Not Active
IC50 [7]: Not Active
Ki [7]: Not Active
IC50 [8]: Not Active
IC50 [9]: Not Active
Ki [9]: Not Active
IC50 [10]: Not Active
IC50 ([11]; insect cells): Not Active

[Cl-].[Cl-].[Zn+2] [ZINC CHLORIDE]
IC50 [1]: Not Active
IC50 [2]: Not Active
IC50 [3]: Not Active
IC50 [4]: Not Active
Ki [4]: Not Active
IC50 [5]: Not Active
Ki [5]: Not Active
IC50 [6]: Not Active
IC50 [7]: Not Active
Ki [7]: Not Active
IC50 [8]: Not Active
IC50 [9]: Not Active
Ki [9]: Not Active
IC50 [10]: Not Active
IC50 ([11]; read-out: IC50): 1880 nM
